# What was measured:
# [1] = target: human histamine H3 receptor (hH3R) (Homo sapiens, UniProt Q9Y5N1); test: [3H]Nα-methylhistamine radioligand binding assay in CHO-K1 cells stably expressing hH3R; set-up: expressed in transfected cells; host or cells: CHO-K1; conditions: CHO-K1 cells; [3H]Nα-methylhistamine; mean ± SEM of three independent experiments; read-out: hH3R Ki [nM] ± SEM
# [2] = parallel artificial membrane permeability assay (PAMPA); type: in vitro ADME
# [3] = target: T1, MAO B (Homo sapiens, UniProt P27338); test: reversibility of MAO B inhibition (reactivation by excess p-tyramine, with/without preincubation); type: biochemical; conditions: inhibitor at IC80
# T1 sequence (P27338 1-520): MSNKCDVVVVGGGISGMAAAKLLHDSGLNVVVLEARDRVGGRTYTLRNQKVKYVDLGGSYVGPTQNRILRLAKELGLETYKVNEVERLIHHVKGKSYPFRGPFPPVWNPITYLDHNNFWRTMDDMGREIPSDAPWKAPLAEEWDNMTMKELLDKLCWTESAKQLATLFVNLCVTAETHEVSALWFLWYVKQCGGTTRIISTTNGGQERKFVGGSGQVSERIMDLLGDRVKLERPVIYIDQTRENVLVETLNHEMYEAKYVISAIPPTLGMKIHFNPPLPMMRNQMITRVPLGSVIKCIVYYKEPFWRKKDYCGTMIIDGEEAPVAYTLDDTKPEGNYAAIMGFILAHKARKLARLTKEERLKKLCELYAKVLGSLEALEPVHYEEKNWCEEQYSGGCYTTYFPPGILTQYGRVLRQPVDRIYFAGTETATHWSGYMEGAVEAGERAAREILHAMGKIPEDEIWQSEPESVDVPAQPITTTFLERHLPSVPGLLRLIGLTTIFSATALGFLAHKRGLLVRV
# Experimental: The reversibility of the MAO inhibition was tested as described in [6, 7]. […] Two variants of experiment were performed. […] After 22 min, the concentration of the substrate was increased to 200 µM and the signal was measured for 5 h.
# [4] = target: T2, human MAO B (hMAO B) (Homo sapiens, UniProt P27338); test: modality of hMAO B inhibition (Michaelis-Menten / Lineweaver-Burk); type: biochemical
# T2 sequence (P27338 1-520): T1 sequence (P27338 1-520)
# Experimental: Modality of hMAO B inhibition was evaluated for compounds 9 and 13 and the reference safinamide according to the method described previously. Three concentrations of inhibitors, corresponding to their IC20, IC50 and IC80 values, were used. Each experiment was performed in triplicate. KM and Vmax values were calculated from Michaelis–Menten curves by nonlinear regression from the substrate. Lineweaver–Burk plots were calculated using linear regression in GraphPad Prism 6.07 (GraphPad Software, San Diego, CA, USA).
# For testing modality of enzyme inhibition, we used three concentrations of inhibitors that corresponded to their IC20, IC50 and IC80 values. Substrate (p-tyramine) was used at concentrations: 0.05, 0.1, 0.5, 1.0, 1.5 and 2.0 mM.
# [5] = MTT cell viability test on human astrocytes; type: cell-based; conditions: human; 24 h; at 0.15 and 0.25 mg/mL; read-out: decline in cell viability in comparison to the control level
# Experimental: The studies were performed on a commercially-available astrocyte cell line isolated from human cerebral cortex (ScienCell Research Laboratories, San Diego, CA, USA; Cat no. 1800). The cells (passage 7–8) were seeded into a 96-well plate at an amount of 10,000 cells/well and kept in accordance with the ScienCell Research Laboratories’ protocol, i.e., in astrocyte medium supplemented with 2% fetal bovine serum, 10% astrocyte growth supplement and 1% penicillin/streptomycin solution, in an atmosphere with 5% CO2 at 37 °C. The cells were allowed to grow for 24 h and then treated with increasing concentrations of test compounds (0.01–0.25 mg/mL) for 24 and 72 h. Astrocytes in the medium on each plate (regardless of the factors tested) were used as a positive control.
# The viability of the astrocyte cell line was determined calorimetrically using 3-(4,5-dimethylthazol-2-yl)-2,5-diphenyltetrazolium bromide (MTT; Sigma-Aldrich Chemical Co. Ltd., Saint Louis, MO, USA) as described earlier. […] After the incubation time (24 or 72 h) with examined drugs, 50 μL MTT solution (1 mg/mL) was added to each well of the plate for another 4 h. The method is based on the reduction of a yellow tetrazolium salt (MTT) into purple formazan crystals by mitochondrial succinate-tetrazolium reductase system which is metabolically active in viable cells. At the end of the experiment, the cells were treated with 100 μL dimethyl sulphoxide, which enabled the release of the reaction product.
# The absorbance was measured at 570 nm using a BioTek EL×800 microplate reader (BioTek, Winooski, Vermont, USA) and results were expressed as a percentage of the absorbance measured in control cells. The obtained values were plotted against different concentrations of each compound to calculate the viability inhibition concentration at 50% (IC50) using GraphPad Prism 6.07 (GraphPad Software, Inc., San Diego, CA, USA). The experiment was repeated in quadruplicate.
# For the cytotoxicity assessment in the MTT assays, each test drug was used at 8 concentrations (range: 0.01–0.25 mg/mL).
# [6] = inhibitor at IC20, IC50, IC80, p-tyramine 0.05–2.0 mM
# human histamine H3 receptor (hH3R), sequence (Q9Y5N1 whole entry): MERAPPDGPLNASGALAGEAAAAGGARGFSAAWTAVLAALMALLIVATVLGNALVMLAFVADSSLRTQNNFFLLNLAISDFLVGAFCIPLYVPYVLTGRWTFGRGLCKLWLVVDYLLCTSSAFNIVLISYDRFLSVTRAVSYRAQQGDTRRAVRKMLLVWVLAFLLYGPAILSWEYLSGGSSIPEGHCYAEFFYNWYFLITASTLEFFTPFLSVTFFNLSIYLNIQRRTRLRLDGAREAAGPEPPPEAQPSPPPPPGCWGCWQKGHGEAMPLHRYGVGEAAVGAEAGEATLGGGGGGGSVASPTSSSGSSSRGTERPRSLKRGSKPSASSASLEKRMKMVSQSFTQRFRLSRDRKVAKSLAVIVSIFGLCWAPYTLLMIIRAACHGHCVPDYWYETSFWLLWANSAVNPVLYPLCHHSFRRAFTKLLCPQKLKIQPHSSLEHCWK
smiles,measurement,setting,value
"CC1CCCN1CCCOc1ccc(C(C)(C)C)cc1.O=C(O)C(=O)O (stereo not shown) [Compound 13, 1-(3-(4-(tert-Butyl)phenoxy)propyl)-2-methylpyrrolidine hydrogen oxalate]",Ki,[1],25 ± 9 nM
same,"permeability in PAMPA, in words",[2],high permeability
same,Pe (×10^−6cm/s) ± SD,"[2]; PAMPA, triplicate, breakpoint for permeable compounds Pe ≥ 1.5×10^−6 cm/s",16.72 ×10^−6cm/s
same,Papp,"[2]; PAMPA, triplicate, breakpoint for permeable compounds Pe ≥ 1.5×10^−6 cm/s, read-out: Pe ± SD",16.72 ± 0.06 ×10⁻⁶ cm/s
same,effect of 30 min preincubation on inhibition (preincubated vs non-preincubated),[3],did not show differences between the variants
same,reversibility of MAO B inhibition,[3]; excess p-tyramine 200 µM,reversible inhibition
same,Affinity (free enzyme vs enzyme-substrate complex),[4],Free enzyme ≈ enzyme-substrate complex
same,Mode of inhibition from kinetic values and LB plot,[4],noncompetitive inhibition
same,Lines on LB plot,[4]; Lineweaver–Burk double-reciprocal plot,Lines intersect to the left of y-axis directly on x-axis
same,app. KM,[4]; [6],No effect ^a
same,app. Vmax,[4]; [6],↓ curvilinearly with ↑ [I]
same,app. Vmax/app. KM,[4]; [6],↓ curvilinearly with ↑ [I]
same,viability at 24 h,[5],> 95%

# From publication PMC9607599, “Dual Targeting Ligands—Histamine H3 Receptor Ligands with Monoamine Oxidase B Inhibitory Activity—In Vitro and In Vivo Evaluation” (Pharmaceutics, 2022)
